This passage reports inhibition results from patent US10647654B2, “Glucose transport inhibitors and methods of using same” (OHIO UNIVERSITY, priority 2016, dated 2020).

Common to all, as to assay type: cell-based
For test [1], the system named is basal glucose transport in A549 cells. Nature of the test: standard glucose uptake assay in A549 lung cancer cells. The settings on record: Homo sapiens, DMSO treated cells as negative control. Here is the method:
(§1) Compounds EKB-1, EKB-2, EKB-3, EKB-4, JDB-1, and JDB-2 were assayed for their ability to inhibit glucose uptake and cell growth in A549 lung cancer cell lines. A standard glucose uptake assay may be used to evaluate glucose uptake inhibition, and an MTT cell proliferation assay may be used to evaluate cancer cell growth inhibition. […] DMSO treated cells served as the negative control. […] Again, DMSO treated cells served as the negative control.

In the next test the test system is A549 cells. Nature of the test: MTT cell proliferation assay in A549 lung cancer cells. Conditions: Homo sapiens, DMSO treated cells as negative control, read-out: Cell Growth Inhibition in A549 Cells (at 30 μM). Here is the method:
as §1

The subject of another test is H1299 cells. Nature of the test: MTT cell proliferation assay in H1299 lung cancer cells. Conditions: Homo sapiens, NCI-H1299, DMSO treated cells as negative control, read-out: Cell Growth Inhibition in H1299 Cells (at 30 μM). On the procedure: (§2) Compounds EKB-3 and EKB-4 were assayed for their ability to inhibit glucose uptake and cell growth in H1299 lung cancer cell lines. A standard glucose uptake assay may be used to evaluate glucose uptake inhibition, and an MTT cell proliferation assay may be used to evaluate cancer cell growth inhibition. […] DMSO treated cells served as the negative control. […] Again, DMSO treated cells served as the negative control. The glucose uptake inhibition and cell growth inhibition of comparative compound WZB-134 in H1299 cells is also provided in Table 2.

The test system of test [2] is basal glucose transport in H1299 cells. Nature of the test: standard glucose uptake assay in H1299 lung cancer cells. Conditions: Homo sapiens, NCI-H1299, DMSO treated cells as negative control. Here is the method:
as §2

Each structure is given as a SMILES string.

Turning to `COC(=O)C(Oc1cc(Cl)ccc1OCc1cccc(O)c1)c1cccc(O)c1` (stereo not shown) [EKB-1], the inhibition at 30 µM was determined as 54.3% in test [1] and 62.2% in the test with A549 cells.
The like results for `COC(=O)C(Oc1ccc(Cl)cc1OCc1cccc(O)c1)c1cccc(O)c1` (stereo not shown) [EKB-2] were, in that order, 56.1% and 51.5%.
Turning to `OCC(Oc1ccc(Cl)cc1OCc1cccc(O)c1)c1cccc(O)c1` (stereo not shown) [EKB-3], the inhibition at 30 µM with H1299 cells worked out at 54%; in test [1], 62.8%; in the test with A549 cells, 55.5%; in test [2] it was 90.5%.
Regarding `COC(=O)C(Oc1cc(Cl)ccc1OCc1cccc(O)c1)c1cccc(OC)c1` (stereo not shown) [JDB-1], the results for the inhibition at 30 µM (in test [1]; with A549 cells) were 19.7% and 24.6%, respectively.
The like results for `COc1cccc(C(CO)Oc2cc(Cl)ccc2OCc2cccc(O)c2)c1` (stereo not shown) [JDB-2] were, in that order, 34.8% and 39.7%.
In the case of `Oc1cccc(COc2cccc(F)c2OCc2cccc(O)c2)c1` [WZB-134, reference compound], the inhibition at 30 µM in the test with H1299 cells was determined as 10.6%; in test [1], 96%; with A549 cells it was 10%; in test [2], 92.5%.
